Assay results from patent USRE37781E1, “Substituted cyclic carbonyls and derivatives thereof useful as retroviral protease inhibitors” (DuPont Pharmaceuticals Company, priority 1991, dated 2002).
In brackets after ≈: the same amount, converted by molar mass. Where two headings read alike, the source gives them in different places.

Tests used:
[1] = target: single-chain tethered dimer of HIV protease (Human immunodeficiency virus 1, UniProt P04585); assay: biochemical; type: biochemical
[2] = test system: HIV-1 (RF) in MT-2 cells; assay: microbe, parasite or virus in culture; type: cell-based; conditions: Human immunodeficiency virus 1, MT2, HIV RNA assay, HIV-1 infected MT-2 cells; class symbols; read-out: IC90
Method in brief: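 HIV-1 laboratory strains (RF, MN, IIIB) grown in H9 cells in RPMI 1640 with 5% FCS; infections in MT-2 cells. Viral RNA quantified by hybridization with biotinylated gag/pol capture probes on streptavidin plates and alkaline phosphatase-conjugated reporter probes; BH10 gag-pol in vitro transcripts serve as RNA standards.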

[3] = Solubility studies; type: physicochemical
Method: For compounds of the present invention having reduceded water solubility it may be advantageous to prepare prodrugs to enhance the solubility and bioavailability of these compounds. […] Solubility studies were performed by mixing an excess of solid compound in water or aqueous medium for at least 4 hours. Solubility was assessed either visually, if a weighed amount clearly dissolved in a measured volume of solvent (method A), or by HPLC assay of filtrates of saturated solutions (method B).

[4] = Oral bioavailability studies in fasted beagle dogs; type: in vivo; conditions: for bioavailability: beagle, dog, plasma, po, excipient glycol, read-out: % Oral Bioavailability of 5U (Mean ± SE)
Method: Improved water solubility can result in increasing the extent of oral bioavailability. Oral bioavailability studies were performed in fasted beagle dogs. Compounds were dosed orally using a solution vehicle or the solid drug powder filled into hard gelatin capsules. Periodic blood samples were taken from each dog and plasma was separated. Plasma drug concentrations were determined using extraction and HPLC analysis. Generally, after the administration of 5U or its prodrugs 29A-E, the plasma concentrations of 5U were determined, rather than unchanged prodrug concentrations. […] Oral bioavailability is expressed as the percentage of the oral dose absorbed. […] Therefore, in order to attain improved oral bioavailability, 5U was administered using a solution with polyethylene glycol 400 or propylene glycol as the vehicle. […] Improved oral bioavailability was attained when the water soluble prodrugs were administered in the solid form, with no added excipients or solvents. […] The advantage of the water soluble prodrugs is especially clear at high doses. […] Samples were then extracted again and assayed for 5U concentration. […] Thus, plasma levels of both intact prodrug and hydrolysis product can be attained using these water soluble prodrugs.

[5] = test system: HIV-1 protease; assay: HIV-1 Protease Transgenic Mouse Model (cataract phenotype); conditions: for Delay in Cataract (relative to control): Tg 72 mouse; for Cataract Density (% of control): Tg 61 mouse
Method: The HIV protease inhibitory activity of the presently claimed compounds was measured in this animal system as a delay or prevention of the onset of cataract appearance in the test animals.
Plasmid Construction: The mammalian expression vector pMSG (Pharmacia) was modified by replacing the MMTV LTR promoter with the 412-bp Bgl II-BamHI mouse alpha A-cryatallin promoter fragment (Chepelinsky et al. Proc. Natl. Acad. Sci. USA, 1985, 82, 2334-2338). The SV40 early splice and polyadenylation signals were retained and this plasmid was renamed pCSV 19. A single chain, tethered dimeric form of the active HIV-1 protease gene (BAA; Cheng et al., Proc. Natl. Acad. Sci. USA, 1990, 87, 9660-9664 and Cheng et al., Gene, 1990, 87, 243-248) was modified for mammalian cell expression by replacing nucleotides 7 to 90 with [sequence]. The gene was cut with EcoRI and Hind III and after blunt-end repair cloned into the Sma I site of the pCSV 19, thus producing PCSV 19-BAA.
Construction of Transgenic Mice: 2.5 kb Hind III fragments from the pCSV 19-BAA and pCSV 19-BA*A* plasmids were isolated (modified from Sambrook at al., Molecular Cloning, A Laboratory Manual, 2nd Ed., 1989, Cold Spring Harbor Laboratory) and used for the construction of transgenic mice using the pronuclei injection method (Hogan et al., Manipulating the Mouse Embryo. A Laboratory Manual, 1986, Cold Spring Harbor Laboratory). Mice were screened for the HIV-1 protease transgene by either Southern blot or Polymerase Chain Reaction (PCR) methods. Mice of the FVB/N strain (Taketo et al., Proc. Natl. Acad Sci. USA, 1991, 88, 2065-2069) were used for the construction and breeding of these transgenic mice, and were originally obtained from Dr. Carl Hansen (NIH) and bred in our facility. Subsequently, the mice were purchased from Charles River Laboratory (Portage, Mich.).
Identification of Transgenic Mice: Southern blot analysis (Sambrook et al. vide supra) was performed on DNA purified from tail biopsies (Hogan et al. vide supra) using the 2.5 kb Hind III fragment from pCSV 19-BAA as the probe (^32P labeled). DNA for PCR was prepared from tail biopsies by overnight digestion with 0.5 mg of Proteinase K (Boehringer-Manheim GmbH) in 100 μl of water and 0.025% SDS. PCR primers specific for the mouse c-fos gene and the transgene's SV40 segment were used as an internal control in some samples. Each PCR reaction contained 1-2 μl of tail digest, 60 μg of each primer, 200 μM of Perkin Elmer Cetus dATP, dCTP, dGTP,TTP (buffered at pH 8.8) and up to 5 units of Perkin Elmer Cetus Ampli/Taq polymerase. The reactions were run on a Perkin Elmer DNA Thermal Cycler as follows: 1 min at 94° C., 3 min at 67° C. (2 sec extension/cycle) for 35 cycles. The PCR products were analyzed by gel electrophoresis (1% agarose,0.5 μg/ml of ethidium bromide), and tail samples with a 625 PCR fragment (SV40 specific) were considered positive for the transgene. Mice bearing the active HIV-1 protease transgene were also identified by their cataract phenotype.
Dosing Regimen: Compounds to be tested were pulverized by manual grinding with mortar and pestle. Just prior to dosing of mice, the compound was suspended in 0.25% methylcellulose/Tween 80 solution, homogenized in a manual Dounce homogenizer and sonicated for 10 min in a sonicating water bath. The volume of suspension was adjusted so that the amount of compound required for dosing one mouse was 0.1-0.2 mL. In order to maintain the required mg/kg dose, an average mouse weight for each group was determined twice a week and the amount of compound adjusted accordingly. Intraperitoneal (ip) and oral (po) dosing was performed using 25 G ⅝ in. injection and 20 G 1½ in. feeding needles, respectively. The dosing was performed twice a day (bid) and the doses were administered 6-8 h apart.

[6] = target: T1, HIV protease (Human immunodeficiency virus type 1 group M subtype B, UniProt P04585); assay: biochemical; set-up: species or system HIV-1
T1 construct: plasmid containing HIV protease under the control of an inducible T7 promoter; made in house; host or cells: E. coli (inclusion bodies, T7 promoter)
Method: HIV Protease Inhibition Assay—Spectroscopic Method
Inclusion bodies were solubilized in 8M urea, 50 mM tris pH 8.0. Protease activity was recovered by dilution 20-fold into buffer containing 50 mM sodium acetate pH 5.5, 1 mM EDTA, 10% glycerol and 5% ethylene glycol. Enzyme was used at a final concentration of 1.0-10 ug/ml.
Stock solutions of 10 mM were prepared in DMSO.
All further dilutions were done in DMSO.

[7] = test system: HIV(3B) or HIV(RF) in MT-2 cells; type: cell-based; set-up: scale not given here; conditions: Table E, whole cell infectivity assay
Method: HIV Low Multiplicity Assay
Materials: MT-2, a human T-cell line, was cultured in RPMI medium supplemented with 5% (v/v) heat inactivated fetal calf serum (FCS), L-glutamine and gentamycin (GIBCO). Human immunodeficiency virus strains HIV (3B) and HIV (RF) were propagated in H-9 cells in RPMI with 5% FCS. XTT, benzene-sulfonic acid, 3,3′-[1-[(phenylamino) carbonyl]-3,4-tetrazolium]bis (4-methoxy-6nitro)-, sodium salt, was obtained from Starks Associates, Inc.
Method: Test compounds were dissolved in dimethylsulfoxide to 5 mg/ml and serially diluted into RPMI medium to ten times the desired final concentration. MT-2 cells (5×10^4/0.1 mL) were added to each well of a 96 well culture plate and 0.02 mL of the appropriate test compound solution was added to the cells such that each compound concentration was present in two wells. The cells and compounds were allowed to sit for 30 minutes at room temperature. HIV(3B) or HIV(RF) (−5×10^5 plaque foaming units/mL) was diluted in medium and added to the cell and compound mixtures to give a multiplicity of infection of 0.01 plaque forming unit/cell. The mixtures were incubated for 7 days at 36° C., during which time the virus replicated and caused the death of unprotected cells. The percentage of cells protected from virus induced cell death was determined by the degree of metabolism of the tetrazolium dye, XTT. In living cells, XTT was metabolized to a colored formazan product which was quantitated spectrophotometrically at 450 nm. The amount of colored formazan was proportional to the number of cells protected from virus by the test compound. The concentration of compound protecting either 50% (IC50) or 90% (IC90) with respect to an uninfected cell culture was determined.

[8] = Hydrolysis of prodrugs to 5U in biological fluids in vitro; type: in vitro ADME; conditions: exposed to plasma or intestinal enzymes in vitro, 37° C.
Method: Compounds 29A-29E are hydrolyzed to parent compound 5U in biological fluids in vitro. This was shown as follows. Plasma was collected from rats, dogs, or human volunteer, and was used within 24 hours. […] After various times of incubation at 37° C., the hydrolysis reaction was quenched with the addition of an organic solvent. The organic solvent was used for extraction of 5U, and concentrations of 5U in the plasma aliquots were determined using HPLC after extraction. Concentrations of 5U were thus measured vs. time of incubation of the prodrug in plasma at 37° C. Similar studies were performed using a homogenate of rat intestinal tissue (10% w/v) as the hydrolysis medium. Results for in vitro hydrolysis of prodrug 29B in dog plasma and rat intestinal homogenate (10% w/v) are given in Table B. Results for in vitro hydrolysis of prodrug 29C in rat, dog and human plasma are given in Table C. […] Other salt forms of these compounds, such as prodrugs 29A and 29D, will be similar to their free acid or free base forms.

| Structure (SMILES) | Ki [1] [nM] | IC90 [2] [µg/mL] | IC90 [7] | melting point [°C] | also measured |
| --- | --- | --- | --- | --- | --- |
| O=C1N(Cc2ccc(CO)cc2)C(Cc2ccccc2)C(O)C(O)C(Cc2ccccc2)N1Cc1ccc(CO)cc1 (centres unmarked) [Example 5U] | < 10 | < 10 | – | – | Solubility ([3]; thermodynamic from solid, water, method B (HPLC assay of filtrates of saturated solutions), read-out: Solubility): 0.01 mg/mL (≈ 17.6 µM); oral bioavailability ([4]; administered as the solid powder): low oral bioavailability; bioavailability ([4]; dose 40 mg/kg 5U eq.): 5 ± 2%; bioavailability ([4]; dose 10-15 mg/kg 5U eq.): 50 ± 20%; oral bioavailability ([4]; similar (high) dose in a non-aqueous vehicle): relatively poor oral bioavailability; Delay in Cataract (relative to control) ([5]; 100 mg/kg bid ip): 5 days; Delay in Cataract (relative to control) ([5]; 400 mg/kg bid ip days 15-42): 45 days |
| CN(C)CC(=O)OCc1ccc(CN2C(=O)N(Cc3ccc(CO)cc3)[C@H](Cc3ccccc3)[C@H](O)[C@@H](O)[C@H]2Cc2ccccc2)cc1.Cl [Example 29D] | – | – | – | – | Solubility ([3]; water, method A (visually)): >200 mg/mL |
| O=C1N(CC2CC2)[C@H](Cc2ccccc2)[C@H](O)[C@@H](O)[C@@H](Cc2ccccc2)N1CC1CC1 [Example 1X] | – | – | + + + | – | Ki ([6]; Table 1a, read-out: Ki): < 10 nM; Cataract Density (% of control) ([5]; 5 mg/kg ip preg days 11-18): 39.8 % of control; Cataract Density (% of control) ([5]; 15 mg/kg ip preg days 11-18): 28.8 % of control |
| CCCCN1C(=O)N(CCCC)C(Cc2ccccc2)C(O)C(O)C1Cc1ccccc1 (centres unmarked) [Example 1Z] | – | – | + + + | – | Ki ([6]; Table 1a, read-out: Ki): < 10 nM |
| O=C1N(Cc2ccccc2)C(Cc2ccccc2)C(O)C(O)C(Cc2ccccc2)N1Cc1ccccc1 (centres unmarked) [Example 1AQ] | – | – | + + + | – | Ki ([6]; Ki): < 10 nM; Cataract Density (% of control) ([5]; 60 mg/kg ip preg days 11-18): 46.6 % of control; Cataract Density (% of control) ([5]; 85 mg/kg ip preg days 11-18, 17-18): 20.6 % of control |
| CC(C)CCN1C(=O)N(CCC(C)C)C(Cc2ccccc2)C(O)C(O)C1Cc1ccccc1 (centres unmarked) [Example 1AH] | – | – | + + + | 194 to 195 | Ki ([6]; Table 1a, read-out: Ki): < 10 nM |
| CN(C)CC(=O)OCc1ccc(CN2C(=O)N(Cc3ccc(COC(=O)CN(C)C)cc3)[C@H](Cc3ccccc3)[C@H](O)[C@@H](O)[C@H]2Cc2ccccc2)cc1 [Example 29C] | – | – | – | – | Solubility ([3]; 0.1M citric acid, method A (visually)): >20 mg/mL; conversion of prodrug to parent 5U [8]: readily convert to parent 5U |
| CN(C)CC(=O)OCc1ccc(CN2C(=O)N(Cc3ccc(COC(=O)CN(C)C)cc3)[C@H](Cc3ccccc3)[C@H](O)[C@@H](O)[C@H]2Cc2ccccc2)cc1.Cl [Example 29E] | – | – | – | – | conversion of prodrug to parent 5U [8]: readily convert to parent 5U; AUC of intact esters (total of mono and bis ester) relative to that of 5U ([4]; oral, plasma treated with NaOH): approximately 2 fold |
| CC(C)=CCN1C(=O)N(CC=C(C)C)C(Cc2ccccc2)C(O)C(O)C1Cc1ccccc1 (centres unmarked) [Example 1AC] | – | – | + + + | 160 to 163 | Ki ([6]; Table 1a, read-out: Ki): < 10 nM |
| CCCN1C(=O)N(CCC)C(Cc2ccccc2)C(O)C(O)C1Cc1ccccc1 (centres unmarked) [Example 1AF] | – | – | + + + | 180 to 182 | – |
| O=C1N(Cc2ccc(COP(=O)(O)O)cc2)[C@H](Cc2ccccc2)[C@H](O)[C@@H](O)[C@@H](Cc2ccccc2)N1Cc1ccc(COP(=O)(O)O)cc1 [Example 29A] | – | – | – | – | Solubility [3]: 2.25 mg/mL (≈ 3100 µM) |
| C=CCN1C(=O)N(CC=C)C(Cc2ccccc2)C(O)C(O)C1Cc1ccccc1 (centres unmarked) [Example 1C] | – | – | + + + | – | Ki ([6]; Ki, Table 1a): < 10 nM |
| O=Cc1ccc(CN2C(=O)N(Cc3ccc(C=O)cc3)C(Cc3ccccc3)C(O)C(O)C2Cc2ccccc2)cc1 (centres unmarked) [Example 5X] | < 10 | < 10 | – | 90 to 91 | – |
| O=C1N(Cc2cccc(CO)c2)C(Cc2ccccc2)C(O)C(O)C(Cc2ccccc2)N1Cc1cccc(CO)c1 (centres unmarked) [Example 5S] | < 10 | < 10 | – | 94 to 95 | – |
| C=CCOc1cccc(CN2C(=O)N(Cc3cccc(O)c3)C(Cc3ccccc3)C(O)C(O)C2Cc2ccccc2)c1 (centres unmarked) [Example 5M] | < 10 | < 10 | – | 78 to 79 | – |
| C=CCN1C(=O)N(Cc2ccccn2)C(Cc2ccccc2)C(O)C(O)C1Cc1ccccc1 (centres unmarked) [Example 5C] | 10 to 1000 | < 10 | – | 160 to 162 | – |
